Measured values as given in the supplement of paper PMC4862054.

Tests used:
Settings in all cases: incubation time: 72 h
CAL-148 = test: normalised viability (% of control), CellTiter-Blue; higher = more viable cells (about 100 = DMSO control)
Description: (§1)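 DSRT, CellTiter-Blue viability, 72 h incubation. Signal is normalised to DMSO and benzethonium chloride controls. Value is the normalised response at dose 3.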

HCC1599 [1] = test: as above
Description: as §1

CAL-120 [2] = test: as above
Description: as §1

HCC1937 [3] = test: as above
Description: as §1

CAL-85-1 [4] = test: as above
Description: as §1

HDQ-P1 [5] = test: as above
Description: as §1

BT-549 [6] = test: as above
Description: as §1

MDA-MB-468 [7] = test: as above
Description: as §1

MDA-MB-231 [8] = test: as above
Description: as §1

MFM-223 [9] = test: as above
Description: as §1

BT-474 = test: drug sensitivity score (DSS), CellTiter-Glo (DSS (AUC-based score)); higher = stronger drug effect (viability inhibition or cytotoxicity); extreme values may be limits of the assay
How it was run: (§2)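 The drug sensitivity score reflects the area under a fitted dose-response curve. To obtain it, breast cancer cells in 20 µl suspension were seeded into 384-well plates containing compound at 5 concentrations, 10-fold apart over a compound-specific 10,000-fold range, and incubated 72 h. CellTox Green fluorescence (485/520 nm) was read first and CellTiter-Glo luminescence second, after 10 min at room temperature. Each plate was normalised to 0.1 % DMSO and a positive kill control.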

HCC1599 [10] = test: as above
How it was run: as §2

CAL-120 [11] = test: as above
How it was run: as §2

Hs578T = test: as above
How it was run: as §2

HCC1937 [12] = test: as above
How it was run: as §2

CAL-85-1 [13] = test: as above
How it was run: as §2

HDQ-P1 [14] = test: as above
How it was run: as §2

DU-4475 = test: as above
How it was run: as §2

BT-549 [15] = test: as above
How it was run: as §2

MDA-MB-468 [16] = test: as above
How it was run: as §2

HCC1143 = test: as above
How it was run: as §2

MDA-MB-231 [17] = test: as above
How it was run: as §2

MFM-223 [18] = test: as above
How it was run: as §2

SK-BR-3 = test: as above
How it was run: as §2

MDA-MB-453 = test: as above
How it was run: as §2

MCF-10A = test: as above
How it was run: as §2

CAL-51 = test: as above
How it was run: as §2

Row | SMILES | normalised viability (CAL-148; 1 nM) | normalised viability (HCC1599 [1]; 10 nM) | normalised viability (CAL-120 [2]; 10 nM) | drug sensitivity score (BT-474) | drug sensitivity score (HCC1599 [10]) | drug sensitivity score (CAL-120 [11]) | drug sensitivity score (Hs578T) | drug sensitivity score (HCC1937 [12]) | drug sensitivity score (CAL-85-1 [13]) | drug sensitivity score (HDQ-P1 [14]) | drug sensitivity score (DU-4475) | drug sensitivity score (BT-549 [15]) | drug sensitivity score (MDA-MB-468 [16]) | drug sensitivity score (HCC1143) | drug sensitivity score (MDA-MB-231 [17]) | drug sensitivity score (MFM-223 [18]) | drug sensitivity score (SK-BR-3) | drug sensitivity score (MDA-MB-453) | drug sensitivity score (MCF-10A) | drug sensitivity score (CAL-51) | further results
1 | COc1cc2c(Oc3ccc(NC(=O)C4(C(=O)Nc5ccc(F)cc5)CC4)cc3F)ccnc2cc1OCCCN1CCOCC1 [Foretinib] | 108% | 95.3% | 89% | 2.19 | 0 | 2.45 | 0 | 0 | 0 | 0 | 0 | 0 | 1.64 | 1.22 | 2.4 | 6.22 | 0 | 0 | 1.41 | 1.01 | normalised viability (HCC1937 [3]; 10 nM): 97.7%; normalised viability (CAL-85-1 [4]; 1 nM): 100%; normalised viability (HDQ-P1 [5]; 1 nM): 92.4%; normalised viability (BT-549 [6]; 10 nM): 107%; normalised viability (MDA-MB-468 [7]; 10 nM): 134%; normalised viability (MDA-MB-231 [8]; 10 nM): 95.1%; normalised viability (MFM-223 [9]; 10 nM): 80%
2 | NC(=O)NO [Hydroxyurea] |  |  |  | 0 | 0 | 0 | 0 | 0 | 0 | 0 | 0 | 1.87 | 0 | 0 | 0 | 0 | 0 | 0 | 0 | 16.2 | normalised viability (CAL-148; 100 nM): 96.8%; normalised viability (HCC1599 [1]; 1000 nM): 117%; normalised viability (CAL-120 [2]; 1000 nM): 103%; normalised viability (HCC1937 [3]; 1000 nM): 91.4%; normalised viability (CAL-85-1 [4]; 100 nM): 100%; normalised viability (HDQ-P1 [5]; 100 nM): 108%; normalised viability (BT-549 [6]; 1000 nM): 103%; normalised viability (MDA-MB-468 [7]; 1000 nM): 109%; normalised viability (MDA-MB-231 [8]; 1000 nM): 98.2%; normalised viability (MFM-223 [9]; 1000 nM): 96.9%
3 | O=NN(CCCl)C(=O)NC1CCCCC1 [Lomustine] |  |  |  | 0 | 0 | 0 | 0 | 0 | 0 | 0 | 0 | 0 | 0 | 0 | 0 | 0 | 0 | 0 | 0 | 0 | normalised viability (CAL-148; 10 nM): 93.9%; normalised viability (HCC1599 [1]; 100 nM): 101%; normalised viability (CAL-120 [2]; 100 nM): 97%; normalised viability (HCC1937 [3]; 100 nM): 87.3%; normalised viability (CAL-85-1 [4]; 10 nM): 93.8%; normalised viability (HDQ-P1 [5]; 10 nM): 113%; normalised viability (BT-549 [6]; 100 nM): 114%; normalised viability (MDA-MB-468 [7]; 100 nM): 101%; normalised viability (MDA-MB-231 [8]; 100 nM): 100%; normalised viability (MFM-223 [9]; 100 nM): 89.5%
4 | O=C(O)CC[C@H]1CC[C@@](c2cc(F)ccc2F)(S(=O)(=O)c2ccc(Cl)cc2)CC1 [MK-0752] | 107% | 106% | 95.1% | 0 | 0 | 0 | 0 | 0 | 0 | 0 | 0 | 0 | 0 | 0 | 0 | 0 | 0 | 0 | 0 | 0 | normalised viability (HCC1937 [3]; 10 nM): 88.5%; normalised viability (CAL-85-1 [4]; 1 nM): 96%; normalised viability (HDQ-P1 [5]; 1 nM): 96.2%; normalised viability (BT-549 [6]; 10 nM): 104%; normalised viability (MDA-MB-468 [7]; 10 nM): 97.6%; normalised viability (MDA-MB-231 [8]; 10 nM): 98%; normalised viability (MFM-223 [9]; 10 nM): 97.1%
5 | NC1(c2ccc(-c3nc4ccn5c(=O)[nH]nc5c4cc3-c3ccccc3)cc2)CCC1 [MK-2206] | 105% | 97.4% | 106% | 0 | 0 | 0 | 0.281 | 0 | 0 | 0 | 0.0487 | 2.74 | 0.936 | 0 | 0 | 1.78 | 3.43 | 5.41 | 0 | 0 | normalised viability (HCC1937 [3]; 10 nM): 80.7%; normalised viability (CAL-85-1 [4]; 1 nM): 92.2%; normalised viability (HDQ-P1 [5]; 1 nM): 103%; normalised viability (BT-549 [6]; 10 nM): 107%; normalised viability (MDA-MB-468 [7]; 10 nM): 109%; normalised viability (MDA-MB-231 [8]; 10 nM): 104%; normalised viability (MFM-223 [9]; 10 nM): 105%
6 | NC(=O)c1cccc2cn(-c3ccc([C@@H]4CCCNC4)cc3)nc12 [MK-4827] |  |  |  | 0 | 0 | 0 | 0 | 0 | 0 | 0 | 2.22 | 0 | 1.06 | 0 | 0 | 0 | 0 | 0 | 0 | 0 | normalised viability (CAL-148; 10 nM): 98.5%; normalised viability (HCC1599 [1]; 100 nM): 93.8%; normalised viability (CAL-120 [2]; 100 nM): 87.3%; normalised viability (HCC1937 [3]; 100 nM): 72.9%; normalised viability (CAL-85-1 [4]; 10 nM): 101%; normalised viability (HDQ-P1 [5]; 10 nM): 105%; normalised viability (BT-549 [6]; 100 nM): 97.1%; normalised viability (MDA-MB-468 [7]; 100 nM): 95%; normalised viability (MDA-MB-231 [8]; 100 nM): 97.5%; normalised viability (MFM-223 [9]; 100 nM): 90.6%
7 | N[C@@H](Cc1ccc(N(CCCl)CCCl)cc1)C(=O)O [Melphalan] |  |  |  | 19.2 | 17.2 | 11.5 | 16.2 | 20.2 | 17.4 | 19.5 | 19.1 | 14.4 | 21.5 | 13.9 | 20.7 | 19.3 | 20.5 | 21.3 | 17.6 | 21.3 | normalised viability (CAL-148; 0.99 nM): 92.4%; normalised viability (HCC1599 [1]; 9.9 nM): 96.1%; normalised viability (CAL-120 [2]; 9.9 nM): 73.6%; normalised viability (HCC1937 [3]; 9.9 nM): 102%; normalised viability (CAL-85-1 [4]; 0.99 nM): 87.5%; normalised viability (HDQ-P1 [5]; 0.99 nM): 97.6%; normalised viability (BT-549 [6]; 9.9 nM): 110%; normalised viability (MDA-MB-468 [7]; 9.9 nM): 108%; normalised viability (MDA-MB-231 [8]; 9.9 nM): 99.8%; normalised viability (MFM-223 [9]; 9.9 nM): 89.9%
